Results taken from patent US20230087766A1, “METHODS OF REACTIVATING LATENT HUMAN IMMUNODEFICIENCY VIRUS AND RELATED COMPOSITIONS” (priority 2017, published 2023).

Legend:
[1] = system: latent HIV (HIV LTR-driven transcription) in J-Lat A1 cells; type: cell-based
Procedure: Cell culture: J-Lat Al cells (derived from Jurkat cells harboring HIV LTR-Tat-GFP gene) and U1 cells (promonocytic cell line harboring one copy of HIV genome with defective tat gene) were obtained from NIH AIDS Reagent Program and cultured at 37° C. with 5% CO2 in RPM11640 medium containing 10% FBS and 1% penicillin-streptomycin as previously described (see G. Jiang, et al. PLoS Pathogens 11, e1005066 (2015)).
For inhibiting ACSS2 and crotonylation, cells were pretreated with ACSS2 inhibitor, AR12 (SELLECK CHEMICALS™, Houston, Tex.), for 30 minutes, followed by Na-Cro treatment for 4 or 18 hours.
Real-Time PCR Analysis: HIV gene expression was measured using real-time PCR in J-Lat Al cells treated with LRAs. Total nucleic acid was extracted using RNEASY™ Kit, genomic DNA digested using DNase I and total RNA reverse transcribed using Superscript III to synthesize cDNA. […] […] TAMRA-3′ (SEQ ID NO:3).

[2] = system: HIV LTR in J-Lat A1 cells; experiment: Chromatin immunoprecipitation (ChIP) at the HIV LTR; type: cell-based; conditions: J-Lat A1 cells, 30 mM Na-Cro for 4 hours
Excerpt: FIG. 2 is a series of images and graphs showing that histone crotonylation by sodium crotonate addition re-programs histone tails at the HIV LTR. Panel A illustrates that Na-Cro addition increased global expression of H3K4Cro, H3K4Ac, and H3K18Ac while decreasing H3K27Me3. Panel B illustrates expression of transcription factors after Na-Cro addition in J-Lat Al cells. Panels C-E illustrate that Na-Cro addition re-programmed histone tails at the HIV LTR. Chromatin immunoprecipitation (ChIP) assay was performed by using anti-H3K4Cr, anti-H3K4Ac, and anti-H3K27Me3 antibodies after J-Lat Al cells were treated with 30 mM Na-Cro for 4 hours. PCR primers were specific for the HIV LTR region.
FIG. 7 is a series of graphs showing that induction of de-crotonylation of histone tail at HIV LTR is independent of SIRTs. Panel A illustrates that J-Lat Al cells were pre-treated with either 50 μM RSV or 1 mM NAM, followed by 30 mM Na-Cro addition to reactivate latent HIV expression. Untreated controls were compared with positive controls involving individual treatment of Na-Cro, RSV, or NAM. *, p<0.05; **, p<0.01 compared with control treatment. #, p<0.05 compared with Na-Cro treatment. Panel B illustrates that gene expression of sirt1 or sirt3 was measured by RT-qPCR in J-Lat Al cells treated with either 25 μM RSV, 50 μM RSV, or 1 mM NAM. *, p<0.05 and **, p<0.01 compared with control treatment. Panels C and D illustrate that histone crotonylation induces binding of SIRT3 and SIRT1 at the HIV LTR. J-Lat Al cells were treated with 30 mM Na-Cro for 4 hours and analyzed by ChIP assays using anti-SIRT1 or anti-SIRT3 antibodies. *, p<0.05 compared with control treatment.
Chromatin Immunoprecipitation (ChIP): J-Lat Al cells (2.5 to 5 million) were utilized in ChIP assays with anti-H3K18Ac, anti-H3K4Cr, anti-H3K27Me3, anti-H3K4Ac, anti-SIRT3 (CELL SIGNALING TECHNOLOGY®), and anti-SIRT1 (CELL SIGNALING TECHNOLOGY®) antibodies. ChIP assays were performed using […]® Kit from CELL SIGNALING TECHNOLOGY® as per the manufacturer's recommendations. Samples were cross-linked using formaldehyde and 150-1000 bp fragments were made using Micrococcal Nuclease digestion and 7 cycles of 30 seconds on/30 seconds off sonication. Antibodies were used to probe respective proteins. Purification of DNA was performed using the […]® Kit Protocol. Purified ChIP DNA was used in SYBR® Green qPCR using ChIP primers specific for HIV LTR.

[3] = system: T cells in PBMCs from healthy HIV-negative donors; experiment: Immune activation and checkpoint markers in PBMCs by flow cytometry; type: cell-based, human
Procedure: PBMCs from healthy HIV-negative donors (n=5) were treated with 100 ng/ml PMA 2 plus 2 μg/ml ionomycin, 30 mM Na-Cro overnight, and analyzed by flow cytometry for the expression of CD4, CD8, HLA-DR, CD69, or PD-1 in CD3+ T cells. Percentage of cells expressing immune activation markers was presented for CD3+ cells (see panel A), CD3+CD4+ T cells (see panel B), and CD3+ CD8+ T cells (see panel C). ***, p<0.001, compared with control after 24 or 72 hour treatment.
It was examined whether induction of histone crotonylation in T cells impacted the level of immune activation in these cells. Peripheral blood mononuclear cells from HIV-negative healthy donors (n=5) were treated with PMA/Ionomycin or Na-Cro for 24 hours or 72 hours. Changes in the immune cell status were examined by measuring the levels of HLA-DR, CD69, and PD-1 in the T cell subsets by flow cytometric analysis (see FIG. 9). […] Instead, it is associated with the suppression of immune activation, which may have a beneficial effect on patient immune function.

[4] = healthy donors n=5, 30 mM Na-Cro

With `C/C=C/C(=O)[O-].[Na+]` [Na-Cro, sodium crotonate] the “induction of HIV LTR-driven transcription” value ([1]; J-Lat A1 and U1 cell cultures) was “dose-dependent manner”, the “reactivation of latent HIV by epigenetic modifiers” value ([1]; J-Lat A1 cells, 30 mM Na-Cro, 500 nM SAHA, 2 μM GSK343 or 5 μM AZA-dc, RT-qPCR) was “comparable capacity to reactivate latent HIV” and the “increase in HIV transcription compared to untreated controls” value ([1]; J-Lat A1 cells, Na-Cro at 40 mM) was 12 fold. The “HIV reactivation compared to the control” value ([1]; Na-Cro alone, AR12 experiment (FIG. 3, panel D)) was 8 fold, the “acetylation at H3K4 at the HIV LTR” value [2] was “increased” and the “binding of SIRT1 at the HIV LTR” value [2] was “efficiently bound to the HIV LTR at higher levels than controls”. The “binding of SIRT3 at the HIV LTR” value [2] was “efficiently bound to the HIV LTR at higher levels than controls”, the “crotonylation at H3K4 at the HIV LTR” value [2] was “increased” and the “histone tri-methylation at H3K27 at the HIV LTR” value [2] was “decreased”. For the same molecule, the “HLA-DR expression in CD4+ or CD8+ T cells” value [3, 4] was “inhibited HLA-DR expression at 24 and 72 hours”, the “PD-1 expression in CD3+ T cells” value [3, 4] was “did not change” and the “PD-1 expression in CD4+ or CD8+ T cells” value [3, 4] was “did not modulate PD-1 expression”. The “HLA-DR expression in CD3+ T cells” value ([3]; healthy donors n=5, 30 mM Na-Cro or PMA plus ionomycin, 24 or 72 hours) was “suppressed HLA-DR expression at 72 hours post-treatment”.
